From patent publication US20230089073A1 (Carmot Therapeutics, Inc., priority 2021, published 2023)

Molecular target: T1, human GLP-1 receptor (Homo sapiens, UniProt P43220)
T1 construct: expressed in transfected cells
Assay: GLP-1R cAMP Assay
Type: cell-based
Settings: cAMP accumulation in CHO cells stably overexpressing the human GLP-1 receptor; 30 min treatment; HitHunter cAMP kit; read-out: EC50
In short: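 Luminescent enzyme-complementation detection of cAMP, read after cell lysis and overnight incubation, with dose-response curve fitting. Stimulation lasted 30 min, using 20-point triplicate dosing on CHO cells (10,000 per well) stably overexpressing human GLP-1R.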

T1 sequence (P43220 24-463): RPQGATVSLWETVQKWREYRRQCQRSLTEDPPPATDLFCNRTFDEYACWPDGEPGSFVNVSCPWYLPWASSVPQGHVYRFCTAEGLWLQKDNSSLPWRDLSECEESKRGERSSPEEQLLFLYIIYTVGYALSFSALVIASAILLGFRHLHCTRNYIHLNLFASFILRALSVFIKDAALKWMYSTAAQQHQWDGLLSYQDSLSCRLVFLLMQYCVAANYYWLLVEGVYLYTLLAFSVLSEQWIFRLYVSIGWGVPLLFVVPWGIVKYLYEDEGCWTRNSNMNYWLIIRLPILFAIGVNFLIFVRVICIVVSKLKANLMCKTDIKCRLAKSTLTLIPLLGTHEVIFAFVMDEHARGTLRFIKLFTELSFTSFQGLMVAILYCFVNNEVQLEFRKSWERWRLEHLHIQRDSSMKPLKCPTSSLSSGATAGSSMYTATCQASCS

SMILES	EC50 [µM]
N#Cc1cc(C2CC2)ccc1OCc1nccc(OC2CCN(Cc3nc4ccc(C(=O)O)cc4n3C[C@@H]3CCO3)CC2)n1 [Compound 476, 2-{[4-({2-[(2-cyano-4-cyclopropylphenoxy)methyl]pyrimidin-4-yl}oxy)piperidin-1-yl]methyl}-1-{[(2S)-oxetan-2-yl]methyl}-1H-1,3-benzodiazole-6-carboxylic acid]	< 0.05
N#Cc1cc(F)ccc1OCc1nccc(OC2CCN(Cc3nc4c(F)cc(C(=O)O)cc4n3C[C@@H]3CCO3)CC2)n1 [Compound 307]	< 0.05
CCn1cncc1Cn1c(CN2CCC(Cc3cccc(COc4ccc(Cl)cc4Cl)n3)CC2)nc2ccc(C(=O)O)cc21 [Compound 140, 2-{[4-({6-[(2,4-dichlorophenoxy)methyl]pyridin-2-yl}methyl)piperidin-1-yl]methyl}-1-[(1-ethyl-1H-imidazol-5-yl)methyl]-1H-1,3-benzodiazole-6-carboxylic acid]	< 0.05
N#Cc1cc(F)ccc1OCc1cccc(OC2CCN(Cc3nc4ccc(C(=O)O)cc4n3C[C@@H]3CCO3)CC2)c1 [Example 206, (S)-2-((4-(3-((2-Cyano-4-fluorophenoxy)methyl)phenoxy)piperidin-1-yl)methyl)-1-(oxetan-2-ylmethyl)-1H-benzo[d]imidazole-6-carboxylic acid]	< 0.05
N#CCC1(Cn2c(CN3CCC(Oc4ccnc(COc5ccc(Cl)cc5Cl)n4)CC3)nc3ccc(C(=O)O)cc32)CC1 [Compound 340]	< 0.05
Cc1ccc(N(C)c2cccc(C(=O)N3CCN(Cc4nc5ccc(C(=O)O)cc5n4C[C@@H]4CCO4)CC3)c2)c(C)c1 [Compound 45, 2-[(4-{3-[(2,4-dimethylphenyl)(methyl)amino]benzoyl}piperazin-1-yl)methyl]-1-{[(2S)-oxetan-2-yl]methyl}-1H-1,3-benzodiazole-6-carboxylic acid]	< 0.05
Cc1ccc(Oc2cccc(C(=O)N3CCN(Cc4nc5ccc(C(=O)O)cc5n4C[C@@H]4CCO4)CC3)c2)cc1 [Compound 5, 2-({4-[3-(4-methylphenoxy)benzoyl]piperazin-1-yl}methyl)-1-{[(2S)-oxetan-2-yl]methyl}-1H-1,3-benzodiazole-6-carboxylic acid]	> 0.5
O=C(O)c1ccc2nc(CN3CCN(C(=O)c4cccc(Cc5ccc(F)cc5)c4)CC3)n(C[C@@H]3CCO3)c2c1 [Compound 3, 2-[(4-{3-[(4-fluorophenyl)methyl]benzoyl}piperazin-1-yl)methyl]-1-{[(2S)-oxetan-2-yl]methyl}-1H-1,3-benzodiazole-6-carboxylic acid]	> 0.5
O=C(O)c1ccc2nc(CN3CCC(Cc4ccc(COc5ccc(Cl)cc5Cl)o4)CC3)n(C[C@@H]3CCO3)c2c1 [Example 72, (S)-2-((4-((5-((2,4-Dichlorophenoxy)methyl)furan-2-yl)methyl)piperidin-1-yl)methyl)-1-(oxetan-2-ylmethyl)-1H-benzo[d]imidazole-6-carboxylic acid]	< 0.05
N#Cc1ccc(OCc2cc(OC3CCN(Cc4nc5ccc(C(=O)O)nc5n4C[C@@H]4CCO4)CC3)ccn2)c(F)c1 [Compound 379]	< 0.05
O=C(O)c1cc(F)c2nc(CN3CCC(Oc4ccnc(COc5ccc(F)cc5F)n4)CC3)n(C[C@@H]3CCO3)c2c1 [Compound 482, 2-{[4-({2-[(2,4-difluorophenoxy)methyl]pyrimidin-4-yl}oxy)piperidin-1-yl]methyl}-4-fluoro-1-{[(2S)-oxetan-2-yl]methyl}-1H-1,3-benzodiazole-6-carboxylic acid]	< 0.05
CCn1cncc1Cn1c(CN2CCC(C(F)c3cccc(COc4ccc(C)cc4Cl)c3)CC2)nc2ccc(C(=O)O)cc21 (racemic) [Example 131, 2-((4-((3-((2-Chloro-4-methylphenoxy)methyl)phenyl)fluoromethyl)piperidin-1-yl)methyl)-1-((1-ethyl-1H-imidazol-5-yl)methyl)-1H-benzo[d]imidazole-6-carboxylic acid]	< 0.05
N#Cc1cc(Cl)ccc1OCc1cccc(CC2CCN(Cc3nc4ccc(C(=O)O)cc4n3Cc3ncco3)CC2)c1 [Compound 159, 2-{[4-({3-[(4-chloro-2-cyanophenoxy)methyl]phenyl}methyl)piperidin-1-yl]methyl}-1-[(1,3-oxazol-2-yl)methyl]-1H-1,3-benzodiazole-6-carboxylic acid]	< 0.05
CCn1cncc1Cn1c(CN2CCC(Oc3cccc(COc4ccc(Cl)cc4Cl)c3)CC2)nc2ccc(C(=O)O)cc21 [Example 157, 2-((4-(3-((2,4-Dichlorophenoxy)methyl)phenoxy)piperidin-1-yl)methyl)-1-((1-ethyl-1H-imidazol-5-yl)methyl)-1H-benzo[d]imidazole-6-carboxylic acid]	< 0.05
CN(C)C(=O)c1ccc(OCc2ccc(C(=O)N3CCN(Cc4nc5ccc(C(=O)O)cc5n4C[C@@H]4CCO4)CC3)o2)c(F)c1 [Compound 49, 2-{[4-(5-{[4-(dimethylcarbamoyl)-2-fluorophenoxy]methyl}furan-2-carbonyl)piperazin-1-yl]methyl}-1-{[(2S)-oxetan-2-yl]methyl}-1H-1,3-benzodiazole-6-carboxylic acid]	> 0.5
N#Cc1cc(F)ccc1OCc1cccc(OC2CCN(Cc3nc4c(F)cc(C(=O)O)cc4n3C[C@@H]3CCO3)CC2)c1 [Compound 317]	< 0.05
Cc1ccc(N(C)c2cncc(C(=O)N3CCN(Cc4nc5ccc(C(=O)O)cc5n4C[C@@H]4CCO4)CC3)c2)c(Cl)c1 [Compound 85, 2-[(4-{5-[(2-chloro-4-methylphenyl)(methyl)amino]pyridine-3-carbonyl}piperazin-1-yl)methyl]-1-{[(2S)-oxetan-2-yl]methyl}-1H-1,3-benzodiazole-6-carboxylic acid]	0.05 to 0.5
Cc1cc(C2CC2)ccc1N(C)c1cccc(C(=O)N2CCN(Cc3nc4ccc(C(=O)O)cc4n3C[C@@H]3CCO3)CC2)c1 [Example 115, (S)-2-((4-(3-((4-Cyclopropyl-2-methylphenyl)(methyl)amino)benzoyl)piperazin-1-yl)methyl)-1-(oxetan-2-ylmethyl)-1H-benzo[d]imidazole-6-carboxylic acid]	< 0.05
O=C(O)c1ccc2nc(CN3CCN(C(=O)c4ccc(COc5ccccc5Cl)o4)CC3)n(C[C@@H]3CCO3)c2c1 [Compound 39, 2-[(4-{5-[(2-chlorophenoxy)methyl]furan-2-carbonyl}piperazin-1-yl)methyl]-1-{[(2S)-oxetan-2-yl]methyl}-1H-1,3-benzodiazole-6-carboxylic acid]	> 0.5
Cc1ccc(OCc2cccc(CC3CCN(Cc4nc5ccc(C(=O)O)cc5n4C[C@@H]4CCO4)CC3)n2)c(CO)c1 [Example 146, (S)-2-((4-((6-((2-(Hydroxymethyl)-4-methylphenoxy)methyl)pyridin-2-yl)methyl)piperidin-1-yl)methyl)-1-(oxetan-2-ylmethyl)-1H-benzo[d]imidazole-6-carboxylic acid]	< 0.05
N#Cc1ccc(OCc2cc(OC3CCN(Cc4nc5ccc(C(=O)O)cc5n4C[C@@H]4CCO4)CC3)ccn2)c(Cl)c1 [Compound 358]	< 0.05
O=C(c1ccc(-c2nnn[nH]2)nc1)N1CCC(Cc2ccc(COc3ccc(Cl)cc3Cl)o2)CC1 [Compound 107, 5-[4-({5-[(2,4-dichlorophenoxy)methyl]furan-2-yl}methyl)piperidine-1-carbonyl]-2-(1H-1,2,3,4-tetrazol-5-yl)pyridine]	> 0.5
O=C(O)c1ccc2nc(CN3CCc4[nH]c5c(OCc6ccc(Cl)cc6F)cccc5c4C3)n(C[C@@H]3CCO3)c2c1 [Example 90, (S)-2-((6-((4-Chloro-2-fluorobenzyl)oxy)-1,3,4,5-tetrahydro-2H-pyrido[4,3-b]indol-2-yl)methyl)-1-(oxetan-2-ylmethyl)-1H-benzo[d]imidazole-6-carboxylic acid]	> 0.5
O=C(O)c1ccc2nc(CN3CCN(C(=O)c4ccc(OCc5ccc(Cl)cc5Cl)o4)CC3)n(C[C@@H]3CCO3)c2c1 [Example 73, (S)-2-((4-(5-((2,4-Dichlorobenzyl)oxy)furan-2-carbonyl)piperazin-1-yl)methyl)-1-(oxetan-2-ylmethyl)-1H-benzo[d]imidazole-6-carboxylic acid]	> 0.5
CCn1cncc1Cn1c(CN2CCN(C(=O)c3cccc(CNc4ccc(C)cc4Cl)c3)CC2)nc2ccc(C(=O)O)cc21 [Compound 79, 2-{[4-(3-{[(2-chloro-4-methylphenyl)amino]methyl}benzoyl)piperazin-1-yl]methyl}-1-[(1-ethyl-1H-imidazol-5-yl)methyl]-1H-1,3-benzodiazole-6-carboxylic acid]	> 0.5
N#Cc1ccc(OCc2nccc(O[C@H]3C[C@H]4C[C@@H]3CN4Cc3nc4ccc(C(=O)O)cc4n3C[C@@H]3CCO3)n2)c(F)c1 [Compound 507, 2-{[(1R,4R,5S)-5-({2-[(4-cyano-2-fluorophenoxy)methyl]pyrimidin-4-yl}oxy)-2-azabicyclo[2.2.1]heptan-2-yl]methyl}-1-{[(2S)-oxetan-2-yl]methyl}-1H-1,3-benzodiazole-6-carboxylic acid]	< 0.05
O=C(O)c1ccc2nc(CN3CCC(Cc4cccc(OCc5ccc(Cl)cc5Cl)n4)CC3)n(C[C@@H]3CCO3)c2c1 [Compound 200, 2-{[4-({6-[(2,4-dichlorophenyl)methoxy]pyridin-2-yl}methyl)piperidin-1-yl]methyl}-1-{[(2S)-oxetan-2-yl]methyl}-1H-1,3-benzodiazole-6-carboxylic acid]	< 0.05
N#CCC1(Cn2c(CN3CCC(Oc4ccnc(COc5ccc(C(F)F)cc5F)c4)CC3)nc3ccc(C(=O)O)cc32)CC1 [Compound 362]	< 0.05
Cc1ccc(Oc2ccc(C(=O)N3CCN(Cc4nc5ccc(C(=O)O)cc5n4C[C@@H]4CCO4)CC3)cc2)cc1 [Compound 22, 2-({4-[4-(4-methylphenoxy)benzoyl]piperazin-1-yl}methyl)-1-{[(2S)-oxetan-2-yl]methyl}-1H-1,3-benzodiazole-6-carboxylic acid]	> 0.5
